Test results published in PubChem BioAssay (NCI).
“And” between values parts separate entries of the source, which are not always exact repeats. Equal values may be shown once.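 Where inhibition never reached the appropriate level, the endpoint shown equals the highest concentration tested. Otherwise, values were interpolated linearly from a five-concentration, 48-hour dose response in 96-well plates. GI50: concentration for 50% inhibition of growth. TGI: total growth inhibition.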

Assays:
Test in all cases: DTP human tumour cell line panel, 48 h
SF-295 CNS = system: SF-295 CNS
A549 NSCLC = system: A549 NSCLC
TK-10 renal = system: TK-10 renal
EKVX NSCLC = system: EKVX NSCLC
SNB-75 CNS = system: SNB-75 CNS
OVCAR-5 ovarian = system: OVCAR-5 ovarian
SNB-19 CNS = system: SNB-19 CNS
MALME-3M melanoma = system: MALME-3M melanoma
BT-549 breast = system: BT-549 breast
SK-MEL-2 melanoma = system: SK-MEL-2 melanoma
HT29 colon = system: HT29 colon
RXF 393 renal = system: RXF 393 renal
HOP-92 NSCLC = system: HOP-92 NSCLC
MDA-MB-231 breast = system: MDA-MB-231 breast
MCF7 breast = system: MCF7 breast
786-0 renal = system: 786-0 renal
PC-3 prostate = system: PC-3 prostate
SF-268 CNS = system: SF-268 CNS
HOP-62 NSCLC = system: HOP-62 NSCLC
HCT-116 colon = system: HCT-116 colon
ACHN renal = system: ACHN renal
T-47D breast = system: T-47D breast
NCI-H226 lung = system: NCI-H226 lung
A498 renal = system: A498 renal
UACC-257 melanoma = system: UACC-257 melanoma
CAKI-1 renal = system: CAKI-1 renal
HCC-2998 colon = system: HCC-2998 colon
UACC-62 melanoma = system: UACC-62 melanoma
NCI/ADR-RES ovarian = system: NCI/ADR-RES ovarian
OVCAR-3 ovarian = system: OVCAR-3 ovarian
NCI-H522 lung = system: NCI-H522 lung
SK-OV-3 ovarian = system: SK-OV-3 ovarian
SK-MEL-28 melanoma = system: SK-MEL-28 melanoma
KM12 colon = system: KM12 colon
IGROV1 ovarian = system: IGROV1 ovarian
HS 578T breast = system: HS 578T breast
MDA-MB-468 breast = system: MDA-MB-468 breast
HL-60(TB) leukemia = system: HL-60(TB) leukemia
NCI-H23 lung = system: NCI-H23 lung
NCI-H460 lung = system: NCI-H460 lung
SW-620 colon = system: SW-620 colon
SN12C renal = system: SN12C renal
OVCAR-8 ovarian = system: OVCAR-8 ovarian
MOLT-4 leukemia = system: MOLT-4 leukemia
U251 CNS = system: U251 CNS
UO-31 renal = system: UO-31 renal
SK-MEL-5 melanoma = system: SK-MEL-5 melanoma
LOX IMVI melanoma = system: LOX IMVI melanoma
SF-539 CNS = system: SF-539 CNS
OVCAR-4 ovarian = system: OVCAR-4 ovarian
CCRF-CEM leukemia = system: CCRF-CEM leukemia
DU-145 prostate = system: DU-145 prostate

Cn1cc(-c2cc3nc(-c4cn(C)c5ncccc45)cc(N)n3n2)c2ccccc21
GI50 (SF-295 CNS): 1.73 µM | TGI (SF-295 CNS): 3.63 µM | GI50 (A549 NSCLC): 4.6 µM | TGI (A549 NSCLC): > 100 µM | GI50 (TK-10 renal): 11.6 µM | TGI (TK-10 renal): 51.6 µM | GI50 (EKVX NSCLC): 10.7 µM | TGI (EKVX NSCLC): 51.3 µM | GI50 (SNB-75 CNS): 4.97 µM | TGI (SNB-75 CNS): 24.6 µM | GI50 (OVCAR-5 ovarian): 8.81 µM | TGI (OVCAR-5 ovarian): 98.9 µM | GI50 (SNB-19 CNS): 5.11 µM | TGI (SNB-19 CNS): 26.7 µM | GI50 (MALME-3M melanoma): 1.86 µM | TGI (MALME-3M melanoma): 3.3 µM | GI50 (BT-549 breast): 10.2 µM | TGI (BT-549 breast): 24.3 µM | GI50 (SK-MEL-2 melanoma): 2.17 µM | TGI (SK-MEL-2 melanoma): 5.5 µM | GI50 (HT29 colon): 2.15 µM | TGI (HT29 colon): 6.22 µM | GI50 (RXF 393 renal): 2.01 µM | TGI (RXF 393 renal): 4.01 µM | GI50 (HOP-92 NSCLC): 2.93 µM | TGI (HOP-92 NSCLC): 8.33 µM | GI50 (MDA-MB-231 breast): 2.99 µM | TGI (MDA-MB-231 breast): 9.7 µM | GI50 (MCF7 breast): 3.38 µM | TGI (MCF7 breast): 24.2 µM | GI50 (786-0 renal): 1.68 µM | TGI (786-0 renal): 3.16 µM | GI50 (PC-3 prostate): 5.52 µM | TGI (PC-3 prostate): 55 µM | GI50 (SF-268 CNS): 17.2 µM | TGI (SF-268 CNS): > 100 µM | GI50 (HOP-62 NSCLC): 4.5 µM | TGI (HOP-62 NSCLC): 20.7 µM | GI50 (HCT-116 colon): 2.56 µM | TGI (HCT-116 colon): 6.9 µM | GI50 (ACHN renal): 2.6 µM | TGI (ACHN renal): 7.42 µM | GI50 (T-47D breast): 5.77 µM | TGI (T-47D breast): 74.7 µM | GI50 (NCI-H226 lung): 2.7 µM | TGI (NCI-H226 lung): 7.12 µM | GI50 (A498 renal): 17.6 µM | TGI (A498 renal): 37 µM | GI50 (UACC-257 melanoma): 1.83 µM | TGI (UACC-257 melanoma): 3.71 µM | GI50 (CAKI-1 renal): 3.74 µM | TGI (CAKI-1 renal): 19.1 µM | GI50 (HCC-2998 colon): 2.26 µM | TGI (HCC-2998 colon): 5.44 µM | GI50 (UACC-62 melanoma): 1.73 µM | TGI (UACC-62 melanoma): 3.34 µM | GI50 (NCI/ADR-RES ovarian): 5.02 µM | TGI (NCI/ADR-RES ovarian): 24.9 µM | GI50 (OVCAR-3 ovarian): 3.08 µM | TGI (OVCAR-3 ovarian): 11.4 µM | GI50 (NCI-H522 lung): 2.35 µM | TGI (NCI-H522 lung): 5.91 µM | GI50 (SK-OV-3 ovarian): 21 µM | TGI (SK-OV-3 ovarian): 69.3 µM | GI50 (SK-MEL-28 melanoma): 1.71 µM | TGI (SK-MEL-28 melanoma): 3.12 µM | GI50 (KM12 colon): 3.84 µM | TGI (KM12 colon): > 100 µM | GI50 (IGROV1 ovarian): 2.84 µM | TGI (IGROV1 ovarian): 8.11 µM | GI50 (HS 578T breast): 2.48 µM | TGI (HS 578T breast): 8.08 µM | GI50 (MDA-MB-468 breast): 2.43 µM | TGI (MDA-MB-468 breast): 7.76 µM | GI50 (HL-60(TB) leukemia): 2.33 µM | TGI (HL-60(TB) leukemia): 5.11 µM | GI50 (NCI-H23 lung): 10 µM | TGI (NCI-H23 lung): 41.2 µM | GI50 (NCI-H460 lung): 3.75 µM | TGI (NCI-H460 lung): 14.7 µM | GI50 (SW-620 colon): 4.38 µM | TGI (SW-620 colon): > 100 µM | GI50 (SN12C renal): 2.97 µM | TGI (SN12C renal): 14.2 µM | GI50 (OVCAR-8 ovarian): 5.63 µM | TGI (OVCAR-8 ovarian): > 100 µM | GI50 (MOLT-4 leukemia): 2.38 µM | TGI (MOLT-4 leukemia): 8.9 µM | GI50 (U251 CNS): 3.16 µM | TGI (U251 CNS): 21.4 µM | GI50 (UO-31 renal): 4.77 µM | TGI (UO-31 renal): 40.9 µM | GI50 (SK-MEL-5 melanoma): 3.44 µM | TGI (SK-MEL-5 melanoma): 15.7 µM | GI50 (LOX IMVI melanoma): 2.15 µM | TGI (LOX IMVI melanoma): 4.65 µM | GI50 (SF-539 CNS): 1.8 µM | TGI (SF-539 CNS): 3.71 µM | GI50 (OVCAR-4 ovarian): 2.6 µM | TGI (OVCAR-4 ovarian): 8.09 µM | GI50 (CCRF-CEM leukemia): 2.52 µM | TGI (CCRF-CEM leukemia): 6.49 µM | GI50 (DU-145 prostate): 9.59 µM | TGI (DU-145 prostate): 52.9 µM

O=C(Nc1cn[nH]c1-c1nc2ccc(CN3CCOCC3)cc2[nH]1)NC1CC1
GI50 (MDA-MB-468 breast): 0.0355 µM and 0.207 µM | TGI (MDA-MB-468 breast): 1.67 µM and 9.37 µM

COc1ccc(C2CC(c3ccc(OC)cc3O)=NN2c2ccc(S(N)(=O)=O)cc2)cc1 (configuration not stated)
GI50 (MDA-MB-468 breast): 22.3 µM | TGI (MDA-MB-468 breast): > 100 µM

CCCCOc1ccc(S(=O)(=O)N2CCN(c3nccc(N4CCOCC4)n3)CC2)cc1
GI50 (MDA-MB-468 breast): 0.456 µM | TGI (MDA-MB-468 breast): 2.53 µM

COc1ccc(C2=NN(C(C)=O)C(c3ccc(Oc4ccnc5cc(Cl)ccc45)c(OC)c3)C2)cc1 (configuration not stated)
GI50 (MDA-MB-468 breast): 7.43 µM | TGI (MDA-MB-468 breast): 65.1 µM

COc1c(O)cc2c(c1OC)-c1ccc(SC)c(=O)cc1C(NC(C)=O)CC2 (configuration not stated)
GI50 (MDA-MB-468 breast): 3.02 µM | TGI (MDA-MB-468 breast): > 100 µM

S=C1SCN(Cc2ccccc2)CN1Cc1ccccc1
GI50 (MDA-MB-468 breast): 1.2 µM | TGI (MDA-MB-468 breast): 17.1 µM

O=C(Nc1n[nH]c2nc(-c3ccc(O)cc3)c(Br)cc12)C1CC1
GI50 (MDA-MB-468 breast): 3.93 µM | TGI (MDA-MB-468 breast): 8.79 µM

CC1=C2[C@@H](CC1)[C@]1(C)O[C@@](C(C)C)(C[C@H]1OC(=O)CO)[C@H]2OC(=O)CCCc1ccccc1
GI50 (MDA-MB-468 breast): 12.4 µM | TGI (MDA-MB-468 breast): 26.3 µM

COC(=O)C1=C(C(=O)ON)[C@@H]2C=C[C@@]1([C@@H](Cc1ccccc1)Nc1ccccc1)O2
GI50 (MDA-MB-468 breast): 1.48 µM | TGI (MDA-MB-468 breast): 2.97 µM
